# Measurements published in patent US20250262190A1, “USE OF LAT1 INHIBITORS TO TREAT OBESITY” (Georgetown University, priority 2022, published 2025).
# How the values were obtained:
# [1] = system: HFD-fed mice; experiment: Body weight, fat mass and food intake in HFD-fed mice injected with JPH203; assay type: in vivo; details: 25 mg/kg intraperitoneally
# Description: (§1) A study was conducted to determine if inhibiting Slc7a5 prevents the metabolic response of adipocyte to excess […] intake and obesity. Mice fed with HFD for 3 months were then injected intraperitoneally with either (a) JPH203, a potent Slc7a5 inhibitor, at a dose of 25 mg/kg, or (b) PBS (vehicle) as control, for 15 consecutive days while on HFD (Days 1-15). Mice fed with a normal diet and receiving no injection were included as a comparator.
# [2] = system: HFD-fed mice; experiment: Glucose homeostasis and intraperitoneal glucose tolerance testing in HFD-fed mice; assay type: in vivo
# Description: [data shown as mean±SEM and significance was determined by one-way ANOVA (for analysis shown in Panels A, B, C, D, and G) or multiple unpaired t-test (for analysis shown in Panel F); *P<0.05, **P<0.01, ***P<0.001.]
# as §1
# Mice that were obese due to HFD were hyperglycemic and hyperinsulinemia regardless of fed or fasting status (see FIG. 9, Panels A-D).
# [3] = system: epididymal white adipose tissue of HFD-fed mice; experiment: Gene expression (mRNA) in epididymal white adipose tissue of HFD-fed mice; assay type: in vivo
# Description: as §1
# To determine if JPH203 affected adipose tissue function, the epididymal and inguinal white adipose tissues were dissected and analyzed 15 days after treatment.
# [4] = system: HFD-fed mice; experiment: Serum levels of adipokine and cytokines by ELISA in HFD-fed mice; assay type: in vivo; details: 25 mg/kg intraperitoneally, 15 days, vs control HFD-fed mice
# Description: Panels A-G show serum levels of leptin, insulin like growth factor 1 (IGF1), monocyte chemoattractant protein-1 (MCP1), vascular endothelial growth factor (VEGF), interleukin 1 alpha (ILla), interleukin 1 beta (IL1β), interleukin 6, and tumor necrosis factor alpha (TNFa), respectively, in normal diet-fed mice, HFD-fed mice injected with JPH203, and control HFD-fed mice. [“AU”=arbitrary unit; data shown as mean±SEM and significance was determined by one-way analysis of variance (ANOVA) or unpaired two-tailed t-test; *P<0.05, **P<0.01; ***P<0.001, ****P<0.0001.]
# as §1
# Obesity is correlated with chronically high levels of several cytokines which produced primarily by adipose tissues, which play a role in chronic inflammatory states.
# [5] = system: differentiated adipocytes 3T3L1 co-cultured with macrophage (RAW 264.7 cells); experiment: Adipogenesis in co-culture of adipocyte 3T3L1 and macrophage RAW 264.7 cells; assay type: cell-based
# Description: [Data shown as mean±SE and significance was determined by two-way ANOVA (for analysis shown in Panel B) and unpaired two-tailed t-test (for analysis shown in Panels D-G; *P<0.05, ***P<0.001, ****P<0.0001.]
# A study was conducted to determine which aspects of the adipocyte lineage was affected by inhibition of Slc7a5. To this end, pre-adipocytes or differentiated adipocytes 3T3L1 were co-cultured in the presence of macrophage (RAW 264.7 cells). The experimental design is illustrated in FIG. 10, Panel A.
# The study examined expression of PPARγ and mTOR, and Nile red stained lipid droplets, which are indicators of adipogenesis and are shown to increase in differentiated adipocytes compared to preadipocytes.
# [6] = system: HFD-fed mice; experiment: Toxicity of JPH203 treatment in HFD-fed mice (liver and kidney function, activity, organ mass, whole blood counts); assay type: in vivo; details: 25 mg/kg intraperitoneally
# Description: as §1
# In addition, liver function (AST, ALT), kidney function (creatinine), and effect on bone marrow and immune response (whole blood counts) were tested to examine the toxicity of the pharmacological JPH203 treatment. […] Also, there was no effect of JPH203 treatment on liver, heart, or kidney weight (see FIG. 3, Panel E).
# [7] = system: adipose tissues of HFD-fed mice; experiment: Nile red and Mitotracker staining of adipose tissues of HFD-fed mice; assay type: in vivo
# Description: [“Epi fat”=epididymal white adipose tissue; “SubQ”=inguinal white adipose tissue; “iBAT”=interscapular brown adipose tissue; data shown as mean±standard error (SE) and significance was determined by one-way ANOVA or unpaired two-tailed t-test; *P<0.05, **P<0.01.]
# as §1
# [8] = HFD-fed mice injected with JPH203
# [9] = HFD-fed mice injected with JPH203 vs control HFD-fed mice
# [10] = epididymal adipose tissues, vs control HFD-fed mice
# [11] = epididymal white adipose tissue, 15 days after treatment
# [12] = epididymal white adipose tissue, 15 days after treatment, vs control HFD-fed mice
# [13] = co-culture of 3T3L1 and RAW 264.7 cells
# [14] = fully differentiated adipocytes as compared to the preadipocytes, in the presence of macrophages
# [15] = epididymal and inguinal white adipose tissues, vs control HFD-fed mice
smiles,measurement,setting,value
"Nc1cc(COc2c(Cl)cc(C[C@H](N)C(=O)O)cc2Cl)c2oc(-c3ccccc3)nc2c1 [JPH203, (S)-2-Amino-3-(4-((5-amino-2-phenylbenzo[d]oxazol-7-yl)methoxy)-3,5-dichlorophenyl)propanoic acid]","mass of interscapular brown adipose tissue and epididymal and inguinal white adipose tissue, normal fed mice compared to HFD-fed mice injected with JPH203",[1]; at 15 days,not significantly less
same,body weight,"[1]; HFD-fed mice, after 15 days, vs HFD-fed mice injected with vehicle (PBS)",significant weight reduction
same,mass of epididymal white adipose tissue,"[1]; HFD-fed mice, at 15 days, vs control HFD-fed mice",significantly less
same,appetite suppression (food and water consumption) as contributor to weight loss,"[1]; HFD-fed mice, over 15 days",not a major contributing factor
same,reduction in blood glucose concentration after glucose administration (IPGTT),[2]; [8],significantly faster reduction
same,correlation of weight loss with decreased baseline glucose,[2]; HFD-fed mice injected with JPH203 compared with control HFD-fed mice,positively correlated
same,fasting glucose,[2]; [9],lower
same,fed glucose,[2]; [9],lower
same,glucose tolerance,[2]; [9],improved
same,genes related to anti-adipogenic factor,[3]; [10],upregulated
same,genes related to energy dissipation/fatty acid β oxidation,[3]; [10],upregulated
same,genes related to fatty acid uptake,[3]; [10],upregulated
same,genes related to glucose uptake/glycolysis,[3]; [10],downregulated
same,genes related to glyceroneogenesis/fatty acid synthesis,[3]; [10],downregulated
same,genes related to lipogenesis,[3]; [10],downregulated
same,genes related to lipolysis,[3]; [10],downregulated
same,genes related to pentose phosphate pathway (NADPH production),[3]; [10],downregulated
same,Hif2α expression (downstream target of mTOR signaling),[3]; [11],decreased
same,Slc7a5 expression,[3]; [11],did not change
same,anti-inflammatory arginase 1 (Arg1) gene expression,[3]; [11],increased
same,proinflammatory nitric oxide synthase 2 (Nos2/Inos) gene expression,[3]; [11],reduced
same,mRNA levels for beiging and browning markers,[3]; [12],increased
same,mRNA levels for general adipogenic markers,[3]; [12],decreased
same,mRNA levels for white adipogenic markers,[3]; [12],decreased
same,serum level of IGF1,[4],decreased
same,serum level of IL1α,[4],decreased
same,serum level of IL1β,[4],decreased
same,serum level of IL6,[4],increased
same,serum level of MCP1,[4],decreased
same,serum level of TNFα,[4],decreased
same,serum level of VEGF,[4],decreased
same,serum level of leptin,[4],decreased
same,adipocyte differentiation,[5]; [13],decreased
same,cell survival / cell death,[5]; [13],does not affect cell survival
same,lipid droplets (Nile red stained),[5]; [13],reduction
same,PPARγ expression,[5]; [14],reduced
same,mTOR expression,[5]; [14],reduced
same,Creatine levels (kidney function),[6]; 15 days,in the normal ranges
same,complete blood counts (CBC): effect on bone marrow and immune response,[6]; 15 days,no significant effect
same,mice activity (running wheel experiment),[6]; 15 days,does not decrease mice activity
same,AST serum level,"[6]; 15 days, normal is 13-35 IU/L",in the normal range
same,ALT serum level,"[6]; 15 days, normal is 37-88 IU/L",in the normal range
same,Creatine levels compared with control HFD-fed mice,"[6]; 15 days, vs control HFD-fed mice",significantly less
same,"liver, heart, or kidney weight",[6]; day 15,no effect
same,mitochondrial biogenesis in interscapular brown adipose tissues (Mitotracker staining),[7]; [8],significantly increased
same,adipocyte lipid content (Nile red staining),[7]; [15],lower lipid content
same,adipocyte size (Nile red staining),[7]; [15],smaller sized adipocytes
